Source: patent US7384657B2, “Composition of natural herb extract for treating cardiovascular disease and its method of preparation thereof” (priority 2004, dated 2008)
“Also recorded” adds a separate entry of the source. Where two headings read alike, the source gives them in different places.

Tests used:
[1] = toleration time in anoxic state in mice; assay type: in vivo
Text: (§1) The properties of Danshensu are studied.

[2] = pituitary myocardial ischemia in rats, electrocardiac abnormality; assay type: in vivo
Text: as §1

[3] = dog model having myocardial infarction; assay type: in vivo
Text: as §1

[4] = test system: isolated pig's coronary artery; assay: isolated pig's coronary artery perfusion (modified Oglatree preparation)
Text: as §1
Effect of Danshensu [β-(3,4)-dihydroxyphenyl lactic acid] upon the isolated pig's coronary artery is studied. […] The method, which is different from the method of Oglatree isolated coronary artery preparation, is to have both ends of the isolated pig's coronary artery segment ligated to the perfusion cannula.
Test the same specimen by successively giving it 3 crescendo doses of morphine hydrochloride. Record the largest titer of P after each administration. Using Krbs-Henselait liquid to douche the perfusion system 3 times. When the basic line returns to normal, the effect is very obvious after the application of Danshensu (causing the medical concentration in the perfusion system turning into […]). Repeatedly administrate the same 3 crescendo doses of morphine hydrochloride successively like above. Observe the effect of Danshensu on the systole of coronary artery caused by morphine. Again, after the above-mentioned doses of Danshensu are applied, administrate repeatedly 4 crescendo doses of hydrochloric propanol. Observe the effect of Danshensu on the coronary artery systole caused by propanol. The sequence of administration resembles the above. In addition, after the application of Danshensu, repeat the administration by giving 3 crescendo doses of KCI and 3 crescendo doses of reserpine. […]

[5] = test system: isolated heart; assay: isolated heart: coronary blood flow, fibrinolysis
Text: as §1

[6] = pharmacokinetics of Danshensu after auricular vein injection; assay type: in vivo, rabbits; details: 30 mg/kg i.v.
Description: Pharmacokinetics of Danshenu in the biological body is studied. After the selected 5 rabbits' auricular veins are injected with Danshensu (injection of 30 mg/kg), blood is drawn regularly every 15, 30, 60, 90, 120 and 150 minutes. Obtain blood plasma and manipulate like before. Determine concentration of the blood medication. Use blank plasma for controlling. According to the mean from the experimental data, with the use of the logarithm and time of Danshensu concentration, create chart which is a straight line.

[7] = internal distribution of Danshensu by HPLC after intravenous Danshen preparation; assay type: in vivo, domestic rabbit; details: after i.v. Danshen preparation
Description: HPLC is used to study the domestic rabbit's internal distribution and content of the Chinese Danshen preparation's Danshensu. […] Adrenal tissue's average is 14.15 μg/g (+0.33), liver's tissue average 17.69 μg/g (+4.44), lung's tissue average 19.73 μg/g (+4.00), heart's tissue average 12.30 μg/g (+2.18), brain's tissue average 5.45 μg/g (+0.60) and spleen's tissue average 4.66 μg/g (+0.68).

[8] = solubility
Description: Matrine is also called matricaria. Its molecular formula is C15H24N2O and its molecular weight is 248.36. It has four isomers: α, β, γ, and δ isomers. α-matrine is the one commonly seen. It is a needle or rhombohedral crystal, having a melting point 76° C. and [α]D+39.1° (H2O).
Oxymatrine has a molecular formula C15H24N2O2 and a molecular weight 264.36. It is a colorless columnar crystal (Me2CO), melting point 162° C. (hydrate), 207° C. (anhydrate), [α]D+47.7° (C2H5OH). […] It can change to matrine through reaction with SO2.

[9] = 100 mg/kg i.v.
Description: Study of pharmacokinetics of Matrine is carried out. […] Rats are given intravenous injection of oxymatrine 100 mg/kg.

[10] = cited from earlier work
[11] = pharmacokinetics of oxymatrine and matrine in mice
[12] = puerarin in dog with acute myocardial ischemia / coronary blockage; assay type: in vivo
Description: Effect of Puerarin upon the heart is studied. The main effect of Puerarin Pur is to change the myocardial ischemia. Apply intervenous injection of puerarin to the dog which contracts the acute myocardial ischemia. […] After the aortic pressure is adjusted to the level of pre-administration, tension-time index and the rising speed of left ventricular pressure also return to the level of pre-administration.
5 minutes after the midpoint of the anterior branch of the dog's coronary artery encountering acute blockage, intravenous injection of puerarin 20 mg/kg is administrated. […] The function lasts 3˜4 hours. It has no effect on LVSD. 15 minutes after the administration, the ST drops obviously. […] Electrocardiographic index reduces clearly and the pulmonary incarceration has not risen.

[13] = puerarin drops in patients of acute myocardial infarction; assay type: in vivo, human
[14] = puerarin: patient's blood 6-K-PGF1a, HDL, TXB2; assay type: in vivo, human; details: patients
Text: Puerarin can even heighten the patient's blood 6-K-PGF1a [6-acetone-PGF1a (prostaglandin-stable metabolism product)] and High Density Lipid (HDL) level. […] As a result, it enables the coronary artery and the peripheral blood vessel to expand, and therefore, it resists angina pectoris, reduces blood pressure, lowers myocardial oxygen consumption and improves the Ischemic ECG and etc.

[15] = arrhythmia caused by chloroform and the adrenal gland; assay type: in vivo, domestic rabbit
Text: The effect of puerarin on the rhythm of heart is examined. […] Obviously, it also […] the mean of ventricular premature heartbeat and ventricular tachycardia caused by ouabin.

[16] = test system: β-receptor; assay: radioactive ligand analysis on myocardial membrane; assay type: binding, rats
Text: (§2) The effecter of β-receptor is the adenylate cyclase (AC). Excitant of the β-receptor can enable the AC to activate and the antagonist can cause it to inhibit. […] It points out puerarin is an antagonist of one type of β-receptors. It has the selective action on the heart's β-receptor. It can achieve various curative effects on the arrhythmia.

[17] = test system: adenylate cyclase; assay: activation of dissolved adenylate cyclase; assay type: biochemical
Text: as §2

[18] = test system: artery's endothelial cell; assay: arterial endothelial cell culture; assay type: cell-based; details: puerarin 250 μg/ml, 6 hours, 36° C.
Description: The effect of puerarin on the arterial endothelial cell is also examined. Puerarin has very outstanding effect on the artery's endothelial cell. Add puerarin (250 μg/ml) to the cellular fluid, but no addition of puerarin in the control group. After 6 hours of culture at 36° C., determine the content of carboxylic proline in both the internal and the external fluid of the endothelial cells respectively. […] The content of carboxylic proline, in the […], drops to Experiment Group's 2.70±0.06 μg/ml and 2.43±0.21 μg/ml from 3.35±0.05 μg/ml and 2.68±0.15 μg/ml in the Control group's internal and external endothelial cells. With regards to osamine polysaccharide, it drops to Experiment Group's 0.95±0.12 μg/ml and 0.68±0.15 μg/ml from 1.77±0.12 μg/m and 1.57±0.08 μg/ml in the internal fluid of Control group. […] It regulates the permeability of the water solubility and the substance of plasma molecule. Besides having an effect on the selective barrier action, its complex enzyme system can synthesize and secrete many active substances such as PGI2.

[19] = absorption, distribution and excretion of puerarin in rats; assay type: in vivo
Text: The pharmacokinetics of puerarin is also studied. Absorption and distribution of medication of Puerarin are studied. […] External experiment proves puerarin's destruction in the enterogastric tract is very minor, but can be metabolized by the tissue of blood, liver, kidney and etc. It is also able to integrate with the liver, kidney, lung and plasma protein. Pharmacokinetics parameter of the rats's intravenous injection indicates puerarin's distribution in the body is vast and clears up fast. It is not easy to store.
(§3) Metabolism of medication of Puerarin is studied. 24 hours after the rats taken puerarin orally, 1.85% and 35.7% excreted as urine and stool. After the intravenous injection, 37.62%, 7.39% and 3.65% are secreted from the urine, stool and bile respectively. Absorption, by orally taking, is very little. 36 hours after puerarin is orally taken by normal person, only 0.78% […] secrete from the urine; 72 hours after the oral taking, 73.3% secrete from the stool.

[20] = excretion of oral puerarin in normal person; assay type: in vivo, human
Description: as §3

[21] = test system: TA97, TA98, TA100 and TA102; assay: Ames test; assay type: cell-based, typhoid Salmonella bacillus; details: 1, 5, 50, 500, 5000 μg per dish, S9 and non-S9
Description: Use TA97, TA98, TA100 and TA102 as testing strain; puerarin 1, 5, 50, 500, and 5000 μg as dish. In the experiment of S9 and non-S9, its reverse colonial mutation setting figure is basically the same, that is, mutation rate (MR)<2. It has no dosage-response relation. […] Use human microblood nutrient for culturing. Add human blood to the puerarin injection. Under the condition of isolated body, add S9 activation system, then, culture for 53 hours. […] Therefore, hereditary toxicity has not been indicated.

[22] = test system: polychromatic erythrocytes; assay: polychromatic erythrocytes micronucleus; assay type: in vivo; details: every dosage group
[23] = teratogenicity and mutagenicity in pregnant animals and male germ cells; assay type: in vivo, rats; details: 50 and 150 mg/kg
Description: Select 50 pregnant rats. Observe and analyze 450 pregnant mice. Choose 50 and 150 mg/kg as puerarin dosage. […] The deformation of appearance, organ or bone is not found in all the examined fetal mice. It proves neither the puerarin nor the solvent has mutagenic activity on the pregnant mice.

[24] = mice and dog; cited from earlier work
[25] = single intravenous injection 5 mg/kg; cited from earlier work
[26] = within 24 hours of intramuscular oxymatrine 100 mg/kg

Compound: O=C(O)[C@H](O)Cc1ccc(O)c(O)c1 [Danshensu, D(+) β-(3,4-dihydroxyphenyl) lactic acid]
- toleration time in anoxic state [1]: prolong the toleration time in anoxic state
- electrocardiac abnormality of pituitary myocardial ischemia [2]: restore the electrocardiac abnormality
- area suffered from myocardial infarction [3]: the area suffered from myocardial infarction is reduced
- heart function [3]: the heart function is improved
- P ([4]; Danshensu 1×10^6 g/ml in perfusion system, 31 strips, 40 experiments): -2.54±0.48 mmHg
- dilatation of coronary artery smooth muscle ([4]; isolated pig coronary artery): dilate the smooth muscle of coronary artery; also recorded: obvious dilatation effect
- fibrinolysis [5]: relatively weaker function in fibrinolysis
- blood flow of coronary artery ([5]; isolated heart): increasing the blood flow of coronary artery
- pharmacokinetic model [6]: single ventricular model
- half-life ([6]; rabbit, in vivo, iv, 5 rabbits, read-out: biological half-life t1/2): 16.6 min
- Danshensu content, adrenal tissue average [7]: 14.15 µg/g
- Danshensu content, brain tissue average [7]: 5.45 µg/g
- Danshensu content, heart tissue average [7]: 12.30 µg/g
- Danshensu content, liver tissue average [7]: 17.69 µg/g
- Danshensu content, lung tissue average [7]: 19.73 µg/g
- Danshensu content, spleen tissue average [7]: 4.66 µg/g

Compound: O=C1CCC[C@@H]2[C@H]3CCC[N+]4([O-])CCC[C@@H](CN12)[C@@H]34 (stereo partly shown) [Oxymatrine]
- solubility [8]: soluble in water, chloroform and ethanol, but nearly insoluble in ether, methyl ether and petroleum ether
- distribution and elimination [9]: distribution is wide and the elimination fast
- LD50 ([10]; intramuscular injection): 256.74 ± 573.6 mg/kg
- LD50 ([10]; intravenous injection): 144.2 ± 22.8 mg/kg
- transformation in the gastrointestinal tract ([11]; stomach perfusion): gradually transforms into matrine in the gastrointestinal tract
- excretion of oxymatrine [11, 26]: 5.1%
- matrine found in the emiction of urine [11, 26]: 20.6%

Compound: Puerarin
- lowering of LVSD ([12]; 20 mg/kg i.v., 5 minutes after blockage): 10.14%
- myocardial infarction scope (N-BT) ([12]; 20 mg/kg i.v., 6 hours later): reduces significantly
- aortic pressure ([12]; intravenous injection): lower the aortic pressure
- release of myocardial CPK ([12]; ischemia and reperfusion): lowers the release of myocardial CPK
- myocardial index ([13]; 30 minutes and 2 hours after (p<0.01, P=0.05)): clearly reduces
- genesis rate of infarction expansion ([13]; human, in vivo): obviously lowers
- blood 6-K-PGF1a and High Density Lipid (HDL) level [14]: heighten
- ratio of TXB2/6-K-PGF1a [14]: reduces the ratio
- arrhythmic time [15]: shorten the arrhythmic time
- competition with the labeled ligand ([16]; conjugated competition): able to compete with the labeled ligand
- maximum combination capacity of the β-receptor ([16]; rats's myocardial membrane): clearly reduce the maximum combination capacity
- adrenal gland's activation of dissolved adenylate cyclase [17]: completely inhibit
- carboxylic proline, external fluid of endothelial cells [18]: 2.43 ± 0.21 µg/mL
- carboxylic proline, internal fluid of endothelial cells [18]: 2.70 ± 0.06 µg/mL
- osamine polysaccharide, first value (internal fluid) [18]: 0.95 ± 0.12 µg/mL
- osamine polysaccharide, second value [18]: 0.68 ± 0.15 µg/mL
- secreted from the bile ([19]; intravenous injection): 3.65%
- secreted from the stool ([19]; intravenous injection): 7.39%
- secreted from the urine ([19]; intravenous injection): 37.62%
- tissue content ([19]; intravenous injection): the content in kidney is highest, blood plasma takes second place and the brain has lesser
- oral absorption ([19]; oral): absorbed faster but not complete
- excreted as stool ([19]; oral, 24 hours): 35.7%
- excreted as urine ([19]; oral, 24 hours): 1.85%
- medication volume retrieved from gastrointestinal substance and stool ([19]; oral, after 24 hours): 37.3 % of the volume administrated
- secreted from the urine ([20]; 36 hours): 0.78%
- secreted from the stool ([20]; 72 hours): 73.3%
- mutation rate (MR) [21]: < 2
- occurrence rate of polychromatic erythrocytes micronucleus versus negative contrast [22]: no obvious difference
- deformation of appearance, organ or bone of fetal mice [23]: not found
- survival fetal number, absorption fetal number, weight, length, tail length versus control [23]: no obvious difference
- pharmacokinetic model [24]: 3-ventricle open model
- pharmacokinetic model [25]: 2-ventricle open model
